Assay results: patent US10736923B2, “Methods and compositions for generating chondrocyte lineage cells and/or cartilage like tissue” (UNIVERSITY HEALTH NETWORK, priority 2013, dated 2020)

Columns and labels:
Assay type in all cases: cell-based, human
[1] = test system: primitive streak-like mesoderm population; experiment: Paraxial mesoderm specification in monolayer culture, flow cytometry of cell surface markers; conditions: day 4 to day 6 with Dorsomorphin, bFGF, SB431542; read on day 15
Procedure: FIG. 2. Characterization of paraxial mesoderm derived from hPSCs. Flow cytometric analysis of day 5 mesoderm treated with no additional factors (0 DM, no FGF), FGF, 4 μM DM, or 4 μM DM+FGF. Day 5 profiles depict KDR and PDGFRa expression, a double-positive population (gated) indicates mesoderm that has cardiac potential (20). Treatment with FGF results in less PDGFRa expression on day 5. (B) Expression of cell surface markers CD73, CD105, and PDGFR-beta on mesoderm populations on day 15 of differentiation. […] Experimental cell treatments during day 4 to day 6 include the combination of Dorsomorphin, bFGF, TGFbeta inhibitor (SB431542) in the presence or absence of the wnt pathway inhibitor IWP2. Flow cytometric analyses of CD73 and CD105, on day 15 mesoderm populations derived as indicated. (D) Gene expression analyses of day 15 mesoderm populations derived in indicated factors. Nkx2.5 is a cardiac transcription factor, Meox1 and Nkx3.2 are paraxial mesoderm and somite transcription factors. (E) Micrographs depicting 1 day old micromasses and 1 week old micromasses derived from day 15 mesoderm populations as indicated. (F) Flow cytometric analysis of cardiac troponin T (cTnT) expression in 1 week old micromasses derived from day 15 mesoderms as indicated. […] To generate chondrocytes, it is essential to first specify this PS population to a paraxial mesoderm fate. Previous studies have shown that mesoderm populations that express cell surface markers often found on mesenchymal stem cells, CD73 and CD105, have chondrogenic potential (Hwang, Kim et al. 2006). The expression of these two cell surface markers, as well as the expression of transcription factors Meox1 and Nkx3.2 combined with the lack of expression of Nkx2.5 to monitor the emergence of a paraxial mesoderm population was used. Previous experiments in the mouse ESC model system have shown the importance of inhibiting the BMP signaling pathway in the context of FGF signaling to prevent the emergence of cardiac mesoderm and promote the development of paraxial mesoderm (Craft, Ahmed et al. 2013). […] Very few cells in untreated mesoderm conditions expressed CD73 and CD105 (7.46%, FIG. 2B). […] The changes in expression of these surface markers were accompanied by the upregulation of paraxial genes Meox1 and Nkx3.2 (FIG. 2C). […] Thus, in some cell lines, the efficiency of paraxial mesoderm specification may be improved in the presence of a Wnt pathway antagonist immediately following the PS mesoderm induction phase.

[2] = test system: hPSC-derived articular chondrocytes; experiment: Response of hPSC-derived articular-like cartilage to IL1β
Procedure: FIG. 9. hPSC-derived articular-like cartilage respond appropriately to the pro-inflammatory molecule IL1β. (A) The experimental plan is depicted. Articular cartilage tissues were derived from hPSCs for 10 weeks in the presence of TGFβ3. Cartilage tissues (micromasses) were treated for two weeks (from week 10-12) with TGFβ3 or IL1β (10 ng/ml), as indicated. […] Values represent copy number mRNA relative to TBP (n=7). Error bars indicate s.e.m. (K) Histological analysis of 12-week tissues after treatments as indicated. Metachromatic toluidine blue staining indicates proteoglycans.
Access to an unlimited supply of hPSC-derived articular-like cartilage provides an opportunity to establish platforms to analyze the effects of pro-inflammatory cytokines such as […] (IL1beta), known to play a role in the early stages of osteoarthritis (OA). […] These enzymes cleave proteins found in cartilage extracellular matrix (ECM), such as collagens and aggrecans, which leads to the degradation of cartilage tissue. Significant upregulation of MMP13 and ADAMTS4 was observed only in the absence of TGFbeta3. ADAMTS5 was induced with or without TGFbeta3 present.

[3] = test system: hPSC-derived paraxial mesoderm; experiment: Chondrocyte specification in micromass culture with TGFB3 or BMP4 (histology, scatter flow cytometry, qRT-PCR, immunostaining); conditions: for CILP2 expression / COL2A1 expression / PRG4 (lubricin) expression: 12 weeks of micromass culture, TGF agonist 10 ng/ml
Description: FIG. 4. TGFB3 and BMP4 specify chondrocytes and cartilage-like tissues with articular cartilage and growth plate cartilage phenotypes. (A) Micrographs of 5 week old micromasses derived with TGFB3 or BMP4, 20× magnification. (B) Tissue histology (stained with toluidine blue) of 13 week cartilage tissues derived with TGFB3 or BMP4. […] (C) Flow cytometric analysis of forward and side cell scatter parameters of 3 week and 5 week old micromasses. Side scatter indicates cell granularity and forward cell scatter indicates cell size. (D) Comparison of hPSC-derived micromass tissues to fetal primary chondrocyte derived micromass tissues and the developing human fetal femur cartilage. Articular cartilage regions appear to have smaller cells in size compared to growth plate like regions, which contain cells which appear enlarged (hypertrophic). Cartilage tissues in micromass as well as in the fetal femur stain uniformly with the toluidine blue stain (images are pink/purple in color and indicate the presence of cartilage proteins). The BMP4-treated micromass tissues contain a large number of enlarged cells which is similar to the bottom panel of the fetal cartilage which represents a growth plate cartilage. TGFB3 treated micromass cultures contain fewer, if any, enlarged chondrocytes, and appear similar to the upper panel of the fetal cartilage which is the site of articular cartilage. (E) Micrograph using GDF5 instead of BMP4 to generate hypertrophic chondrocytes. (F) Histological analyses of cartilage tissues derived from hiPSCs stained with Toluidine blue after 12 weeks. (G,H) Immunohistochemical staining of hESC-derived cartilage tissues for type II Collagen (G, 8 week tissues), and lubricin (H, 12 week tissues).
FIG. 5. Gene expression analyses of chondrocyte specification in the presence of TGFB3 or BMP4 during stages 3 and 4 of differentiation respectively. General chondrocyte genes Sox9 (A) and collagen 2 (B), hypertrophic genes collagen 10 (C), Runx2 (D), osterix (E) and alkaline phosphatase (F), articular cartilage associated genes lubricin (G) and cartilage intermediate layer protein 2 (CILP2) (H), interzone-related (joint progenitor) genes GDF5 (I), ERG (J) and Wnt9a (K). Expression is copy number relative to TBP (n=3 to 8 biological replicates) and is compared to primary fetal chondrocytes (aged 16 to 19 weeks, n=4), primary healthy adult articular chondrocytes (n=2), and growth plate-like chondrocytes isolated from the iliac crest of an adult (n=1). T15 Mesoderm indicates day 15 hESC-derived paraxial mesoderm (DM+FGF-treated). Error bars indicate s.e.m.
FIG. 8. TGFβ1, TGFβ2, and TGFβ3 generated articular chondrocytes from hPSC-derived paraxial mesoderm. COL2A1, lubricin, and CILP2 gene expression after 12 weeks of micromass culture in the presence of TGF agonists as indicated (10 ng/ml). Values represent copy number mRNA relative to TBP. Error bars indicate s.e.m.
Previous studies have shown that TGFBeta/BMP signaling is required to generate chondrocyte progenitors from paraxial mesoderm. […] Following 10 days of TGFb3 treatment (day 25 total), cultures could be switched to media containing BMP4 or maintained in TGFb3 (stage 4) in order to specify subsets of chondrocytes (articular/non-hypertrophic or growth plate/hypertrophic). To determine the chondrocyte potential of the day 15 mesoderm populations, the cells were plated at high cell density in a 20 microliter volume on tissue culture treated Petri dishes for an hour (micromass) and then the ‘spot’ was submerged/covered with media. In our initial studies, the cells were ‘spotted’ in a media containing 2% fetal bovine serum. However, this short serum exposure can be omitted with no effects on cartilage formation at later stages, making this protocol optionally serum-free. After 2 to 3 days, serum-free media containing TGFb3 is added to the culture to generate chondrocyte progenitors. […]

[4] = IL1beta in presence of TGFbeta3
[5] = IL1β 10 ng/ml, week 10-12, absence of TGFb3
[6] = IL1β 10 ng/ml, week 10-12, absence of TGFbeta3

With `Cc1ccc2nc(NC(=O)CSc3nc4c(c(=O)n3-c3ccccc3)SCC4)sc2c1` [IWP2, N-(6-Methyl-2-benzothiazolyl)-2-[(3,4,6,7-tetrahydro-4-oxo-3-phenylthieno[3,2-d]pyrimidin-2-yl)thio]-acetamide, reference compound] the “CD73 and CD105 expression with Wnt inhibition” value [1] was “improve the efficiency of CD73 and CD105 expression”.

With IL1beta: pro-inflammatory cytokine the CILP2 expression [2, 4] was “downregulated”, the “lubricin (PRG4) expression” value [2, 4] was “downregulated” and the ADAMTS5 expression ([2]; IL1beta with TGFbeta3 present) was “induced”. For the same molecule, the ACAN expression ([2]; IL1β 10 ng/ml, week 10-12) was “reduction”, the COL2A1 expression ([2]; IL1β 10 ng/ml, week 10-12) was “reduction” and the “vascular endothelial growth factor (VEGF) expression” value ([2]; IL1β 10 ng/ml, week 10-12) was “increase”. The “proteoglycans in the tissue (toluidine blue)” value ([2]; IL1β 10 ng/ml, week 10-12, 12-week tissues) was “noticeable loss”, the ADAMTS4 expression [2, 5] was “upregulation” and the ADAMTS5 expression [2, 5] was “upregulation”. The MMP2 expression [2, 5] was “upregulation”, the MMP13 expression [2, 5] was “upregulation” and the CILP2 expression [2, 6] was “downregulated”. For the same molecule, the “lubricin (PRG4) expression” value [2, 6] was “downregulated”.

For TGFbeta1: TGFbeta agonist, the CILP2 expression [3] was “upregulated”, the COL2A1 expression [3] was “upregulated” and the “PRG4 (lubricin) expression” value [3] was “upregulated”.

B1: GDF5: growth and differentiation factor 5, BMP4 agonist (protein, UniProt P43026 382-501, looked up)
Growth/differentiation factor …: APLATRQGKRPSKNLKARCSRKALHVNFKDMGWDDWIIAPLEYEAFHCEGLCEFPLRSHLEPTNHAVIQTLMNSMDPESTPPTCCVPTRLSPISILFIDSANNVVYKQYEDMVVESCGCR
In the case of B1, the “tissue histology (toluidine blue), chondrocyte size” value ([3]; 13 week old tissues, GDF5 instead of BMP4) is reported as “generates hypertrophic chondrocytes”.

B2: TGFbeta2: TGFbeta agonist (protein, UniProt P61812 303-414, looked up)
Transforming growth factor …: ALDAAYCFRNVQDNCCLRPLYIDFKRDLGWKWIHEPKGYNANFCAGACPYLWSSDTQHSRVLSLYNTINPEASASPCCVSQDLEPLTILYYIGKTPKIEQLSNMIVKSCKCS
B2 was tested, and the CILP2 expression [3] was “upregulated”, the COL2A1 expression [3] was “upregulated” and the “PRG4 (lubricin) expression” value [3] was “upregulated”.
